The results in this text go back to patent US8088930B2, “Benzimidazole derivatives” (Hoffmann-La Roche Inc., priority 2008, dated 2012).

The experiment deals with T1, FXR ligand binding domain (GST-FXR LBD fusion protein, human FXR aa 193-473) (Homo sapiens, UniProt Q96RI1).
T1 construct: fused on or other part: Glutathione-S-transferase (GST) fused N-terminally to the FXR LBD, used to capture the protein on glutathione SPA beads
T1 sequence (Q96RI1 211-486 limits assumed): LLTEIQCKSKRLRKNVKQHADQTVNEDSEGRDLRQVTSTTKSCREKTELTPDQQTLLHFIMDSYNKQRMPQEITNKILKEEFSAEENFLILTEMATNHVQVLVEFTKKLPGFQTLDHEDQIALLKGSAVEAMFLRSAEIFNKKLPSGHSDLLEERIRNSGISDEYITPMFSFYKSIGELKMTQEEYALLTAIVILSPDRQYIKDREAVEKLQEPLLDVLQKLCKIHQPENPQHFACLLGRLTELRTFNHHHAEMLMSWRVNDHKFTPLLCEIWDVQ
In words: Radioligand binding assay (scintillation proximity, radioligand displacement). To be noted: 40 nM GST-FXR LBD on SPA beads, test compound 6×10^−9 M to 2.5×10^−5 M, read-out: h-IC50 Binding. Here is the method:
The following tests were carried out in order to determine the activity of the compounds of formula (I).
To accomplish this, the portions of the sequences encoding the FXR LBD were amplified by polymerase chain reaction (PCR) from a full-length clone by PCR and then subcloned into the plasmid vectors. The final clone was verified by DNA sequence analysis.
The induction, expression, and subsequent purification of GST-LBD fusion protein was performed in E. coli strain BL21(pLysS) cells by standard methods (Current Protocols in Molecular Biology, Wiley Press, ed. Ausubel et al.).
Radioligand Binding Assay
Binding of test substances to the FXR ligand binding domain was assessed in a radioligand displacement assay. The assay was performed in a buffer consisting of 50 mM Hepes, pH 7.4, 10 mM NaCl, 5 mM MgCl2, 0.01% CHAPS. For each reaction well in a 96-well plate, 40 nM of GST-FXR LBD fusion protein was bound to 10 μg glutathione yttrium silicate SPA beads (Pharmacia Amersham) in a final volume of 50 μl by shaking. A radioligand (e.g., 20 nM of 2,N-dicyclohexyl-2-[2-(2,4 dimethoxy-phenyl)-benzoimidazol-1-yl]-acetamide) and test compounds were added, and scintillation proximity counting was performed. All binding assays were performed in 96-well plates and the amount of bound ligand was measured on a Packard TopCount using OptiPlates (Packard).
Take `CC(C)(Oc1ccc(OCC(C2CCCCC2)n2c(-c3ccc(Cl)cc3)nc3cc(F)c(F)cc32)nc1)C(=O)O` (single isomer, unassigned; (-)) [Example 49, (−)-2-(6-{2-[2-(4-Chloro-phenyl)-5,6-difluoro-benzoimidazol-1-yl]-2-cyclohexyl-ethoxy}-pyridin-3-yloxy)-2-methyl-propionic acid]: the IC50 was determined as 400 nM. Next, `O=C(O)C1(Oc2ccc(OCC(C3CCCCC3)n3c(-c4ccc(Cl)cc4)nc4cc(F)c(F)cc43)nc2)CC1` (single isomer, unassigned; (-)) [Example 51, (−)-1-(6-{2-[2-(4-Chloro-phenyl)-5,6-difluoro-benzoimidazol-1-yl]-2-cyclohexyl-ethoxy}-pyridin-3-yloxy)-cyclopropanecarboxylic acid]: 300 nM; `Cc1cc(C(=O)O)cc(C)c1OCC(C1CCCCC1)n1c(-c2ccc(Cl)cc2)nc2cc(F)c(F)cc21` (single isomer, unassigned; (-)) [Example 55, (−)-4-{2-[2-(4-Chloro-phenyl)-5,6-difluoro-benzoimidazol-1-yl]-2-cyclohexyl-ethoxy}-3,5-dimethyl-benzoic acid]: 4 nM. `Fc1cc2nc(-c3ccc(Cl)cc3)n(C(COc3ccc(-c4nnn[nH]4)cn3)C3CCCCC3)c2cc1F` (single isomer, unassigned; (-)) [Example 63, (−)-2-(4-Chloro-phenyl)-1-{1-cyclohexyl-2-[5-(1H-tetrazol-5-yl)-pyridin-2-yloxy]-ethyl}-5,6-difluoro-1H-benzoimidazole]: the IC50 is 90 nM. To `O=C(O)c1ccc(COCC(C2CCCCC2)n2c(-c3ccc(Cl)cc3)nc3cc(F)c(F)cc32)c(F)c1` (single isomer, unassigned; (-)) [Example 65, (−)-4-{2-[2-(4-Chloro-phenyl)-5,6-difluoro-benzoimidazol-1-yl]-2-cyclohexyl-ethoxymethyl}-3-fluoro-benzoic] belongs 200 nM.

As for `O=C(O)c1ccc(COCC(C2CCCCC2)n2c(-c3ccc(Cl)cc3)nc3cc(F)c(F)cc32)cc1` (single isomer, unassigned; (-)) [Example 68, (−)-4-{2-[2-(4-Chloro-phenyl)-5,6-difluoro-benzoimidazol-1-yl]-2-cyclohexyl-ethoxymethyl}-benzoic acid], the IC50 was 60 nM.

`Cc1cc(-c2nnn[nH]2)cc(C)c1OCC(C1CCCCC1)n1c(-c2ccc(Cl)cc2)nc2cc(F)c(F)cc21` (single isomer, unassigned; (-)) [Example 71, (−)-2-(4-Chloro-phenyl)-1-{1-cyclohexyl-2-[2,6-dimethyl-4-(1H-tetrazol-5-yl)-phenoxy]-ethyl}-5,6-difluoro-1H-benzoimidazole]: the IC50 came out at 60 nM. To `COc1ccc(-c2nc3cc(F)c(F)cc3n2C(COc2ccc(C(=O)O)cn2)C2CCCCC2)c(OC)n1` (single isomer, unassigned; (-)) [Example 75, (−)-6-{2-Cyclohexyl-2-[2-(2,6-dimethoxy-pyridin-3-yl)-5,6-difluoro-benzoimidazol-1-yl]-ethoxy}-nicotinic acid] belongs 90 nM.

In the case of `O=C(O)c1cc(F)c(OCC(C2CCCCC2)n2c(-c3ccc(Cl)cc3)nc3cc(F)c(F)cc32)c(Cl)c1` (single isomer, unassigned; (-)) [Example 77, (−)-3-Chloro-4-{2-[2-(4-chloro-phenyl)-5,6-difluoro-benzoimidazol-1-yl]-2-cyclohexyl-ethoxy}-5-fluoro-benzoic acid], the IC50 is 3 nM. To `Fc1cc2nc(-c3ccc(Cl)cc3)n(C(COc3ccc(-c4nnn[nH]4)cc3F)C3CCCCC3)c2cc1F` (single isomer, unassigned; (-)) [Example 81, (−)-2-(4-Chloro-phenyl)-1-{1-cyclohexyl-2-[2-fluoro-4-(1H-tetrazol-5-yl)-phenoxy]-ethyl}-5,6-difluoro-1H-benzoimidazole] belongs 10 nM; to `O=C(O)c1cc(F)c(OCC(C2CCCCC2)n2c(-c3ccc(Cl)cc3)nc3cc(F)c(F)cc32)c(F)c1` (single isomer, unassigned; (-)) [Example 86, (−)-4-{2-[2-(4-Chloro-phenyl)-5,6-difluoro-benzoimidazol-1-yl]-2-cyclohexyl-ethoxy}-3,5-difluoro-benzoic acid], 3 nM. Next, `CC(C)(Oc1ccc(-c2nnn[nH]2)cc1)C(C1CCCCC1)n1c(-c2ccc(Cl)cc2)nc2cc(F)c(F)cc21` (single isomer, unassigned; (-)) [Example 88, (−)-2-(4-Chloro-phenyl)-1-{1-cyclohexyl-2-methyl-2-[4-(1H-tetrazol-5-yl)-phenoxy]-propyl}-5,6-difluoro-1H-benzoimidazole]: 3 nM; `CC(C)(Oc1ccc(C(=O)O)cc1)C(C1CCCCC1)n1c(-c2ccc(Cl)cc2)nc2cc(F)c(F)cc21` (single isomer, unassigned; (-)) [Example 89, (−)-4-{2-[2-(4-Chloro-phenyl)-5,6-difluoro-benzoimidazol-1-yl]-2-cyclohexyl-1,1-dimethyl-ethoxy}-benzoic acid]: 10 nM.

With `COc1ccc(-c2nc3cc(F)c(F)cc3n2C(COc2c(F)cc(C(=O)O)cc2F)C2CCCCC2)c(OC)n1` (single isomer, unassigned; (-)) [Example 98, (−)-4-{2-Cyclohexyl-2-[2-(2,6-dimethoxy-pyridin-3-yl)-5,6-difluoro-benzoimidazol-1-yl]-ethoxy}-3,5-difluoro-benzoic acid], the IC50 stood at 1 nM.

On to `COc1ccc(-c2nc3cc(F)c(F)cc3n2C(COc2c(C)cc(-c3nnn[nH]3)cc2C)C2CCCCC2)c(OC)n1` (single isomer, unassigned; (-)) [Example 101, (−)-1-{1-Cyclohexyl-2-[2,6-dimethyl-4-(1H-tetrazol-5-yl)-phenoxy]-ethyl}-2-(2,6-dimethoxy-pyridin-3-yl)-5,6-difluoro-1H-benzoimidazole], for which the IC50 was found to be 0.2 nM. To `O=C(O)c1cc(F)c(OCC(C2CCCCC2)n2c(-c3ccc(Cl)cc3)nc3ccccc32)c(F)c1` (single isomer, unassigned; (-)) [Example 104, (−)-4-{2-[2-(4-Chloro-phenyl)-benzoimidazol-1-yl]-2-cyclohexyl-ethoxy}-3,5-difluoro-benzoic acid] belongs 50 nM; to `Cc1cc(C(=O)O)cc(C)c1OCC(C1CCCCC1)n1c(-c2ccc(Cl)cc2)nc2ccccc21` (single isomer, unassigned; (-)) [Example 106, (−)-4-{2-[2-(4-Chloro-phenyl)-benzoimidazol-1-yl]-2-cyclohexyl-ethoxy}-3,5-dimethyl-benzoic acid], 100 nM. For the molecule `O=C(O)c1cc(F)c(OCC(C2CCCCC2)n2c(-c3ccc(Cl)cc3)nc3ccccc32)c(Cl)c1` (single isomer, unassigned; (-)) [Example 109, (−)-3-Chloro-4-{2-[2-(4-chloro-phenyl)-benzoimidazol-1-yl]-2-cyclohexyl-ethoxy}-5-fluoro-benzoic acid], the IC50 was 30 nM.

Take `Cc1cc(-c2nnn[nH]2)cc(C)c1OCC(C1CCCCC1)n1c(-c2ccc(Cl)cc2)nc2ccccc21` (single isomer, unassigned; (-)) [Example 112, (−)-2-(4-Chloro-phenyl)-1-{1-cyclohexyl-2-[2,6-dimethyl-4-(1H-tetrazol-5-yl)-phenoxy]-ethyl}-1H-benzoimidazole]: the IC50 stood at 110 nM.
